Where two headings read alike, the source gives them in different places.
What was measured:
[1] = target: recombinant SARS-CoV-2 Main protease (Mpro) (Severe acute respiratory syndrome coronavirus 2 (2019-nCoV) (SARS-CoV-2), UniProt P0DTD1); assay: Cov Mpro Biochemical IC50 Assay; settings: read-out: MPro IC50
SARS-CoV-2-NLuc = assay: microbe, parasite or virus in culture; type: cell-based, SARS Coronavirus 2; settings: Severe acute respiratory syndrome coronavirus, 48 h, read-out: MPro EC50
[2] = recombinant SARS-CoV-2 Mpro, fluorogenic peptide substrate
[3] = recombinant SARS-CoV-2 Mpro 7.5 nM, fluorogenic peptide substrate 40 μM

| Structure (SMILES) | IC50 [1, 2] | EC50 (SARS-CoV-2-NLuc) | IC50 [1, 3] |
| --- | --- | --- | --- |
| O=c1[nH]c2cc(-c3ccccc3Cl)sc2c(=O)n1-c1cncc2ccc(N3CCOCC3)cc12 [Example 385, 6-(2-chlorophenyl)-3-(6-morpholinoisoquinolin-4-yl)thieno[3,2-d]pyrimidine-2,4(1H,3H)-dione] | 5.51 nM | 14 nM |  |
| CC(C)(O)[C@H](F)CNc1ccc2cncc(-n3c(=O)[nH]c4cc(-c5ccccc5Cl)sc4c3=O)c2c1 [Example 386] | 3.96 nM | 56.2 nM |  |
| CC(=O)N1CCN(c2ccc3cncc(-n4c(=O)[nH]c5cc(-c6ccccc6Cl)sc5c4=O)c3c2)CC1 [Example 387] | < 2.54 nM | 30.3 nM |  |
| CC(=O)NC1CCN(c2ccc3cncc(-n4c(=O)[nH]c5cc(-c6ccccc6Cl)sc5c4=O)c3c2)CC1 [Example 388] | 18.7 nM | 212 nM |  |
| CC(C)(O)CNc1ccc2cncc(-n3c(=O)[nH]c4cc(-c5ccccc5Cl)sc4c3=O)c2c1 [Example 389] | 26.7 nM | 131 nM |  |
| CC1(O)CN(c2ccc3cncc(-n4c(=O)[nH]c5cc(-c6ccccc6Cl)sc5c4=O)c3c2)C1 [Example 390] | 11.6 nM | 19.1 nM |  |
| CC1(N2CCN(c3ccc4cncc(-n5c(=O)[nH]c6cc(-c7ccccc7Cl)sc6c5=O)c4c3)CC2)COC1 [Example 391] | 6.25 nM | 10.2 nM |  |
| O=c1[nH]c2cc(-c3ccccc3Cl)sc2c(=O)n1-c1cncc2ccc(N3CCN(C4COC4)CC3)cc12 [Example 392] | < 2.54 nM | 6.75 nM |  |
| O=c1[nH]c2cc(-c3ccccc3Cl)sc2c(=O)n1-c1cncc2ccc(N3C[C@@H]4C[C@H]3CO4)cc12 [Example 393] |  | 12.2 nM | 9 nM |
| O=c1[nH]c2cc(-c3ccccc3Cl)sc2c(=O)n1-c1cncc2ccc(N3C[C@H]4C[C@@H]3CO4)cc12 [Example 394] |  | 5.75 nM | 5.1 nM |
| O=c1[nH]c2cc(-c3ccccc3Cl)sc2c(=O)n1-c1cncc2ccc(N3CC4(C3)CS(=O)(=O)C4)cc12 [Example 395] |  | 80.7 nM | 7.25 nM |
| Cc1nnc2n1CCN(c1ccc3cncc(-n4c(=O)[nH]c5cc(-c6ccccc6Cl)sc5c4=O)c3c1)C2 [Example 396] |  | 3010 nM | 14.9 nM |
| O=c1[nH]c2cc(-c3ccccc3Cl)sc2c(=O)n1-c1cncc2ccc(N3CC4(COC4)C3)cc12 [Example 397] |  | 15.2 nM | 3.51 nM |
| CO[C@H]1CCN(c2ccc3cncc(-n4c(=O)[nH]c5cc(-c6ccccc6Cl)sc5c4=O)c3c2)C1 [Example 398] |  | 18.7 nM | 3.38 nM |
| CN1CCN(c2ccc3cncc(-n4c(=O)[nH]c5cc(-c6ccccc6Cl)sc5c4=O)c3c2)CC1 [Example 400] |  | 6.07 nM | 6.04 nM |
| COC1CCN(c2ccc3cncc(-n4c(=O)[nH]c5cc(-c6ccccc6Cl)sc5c4=O)c3c2)CC1 [Example 401] |  | 10.6 nM | 3.84 nM |
| O=c1[nH]c2cc(-c3ccccc3Cl)sc2c(=O)n1-c1cncc2ccc(N3CC4(CCCO4)C3)cc12 [Example 402] |  | 12.1 nM | 6.05 nM |
| COCCNc1ccc2cncc(-n3c(=O)[nH]c4cc(-c5ccccc5Cl)sc4c3=O)c2c1 [Example 403] |  | 11.1 nM | 6.9 nM |
| CN(CCO)c1ccc2cncc(-n3c(=O)[nH]c4cc(-c5ccccc5Cl)sc4c3=O)c2c1 [Example 404] |  | 37.4 nM | 6.49 nM |
| O=C1C[C@@H](Nc2ccc3cncc(-n4c(=O)[nH]c5cc(-c6ccccc6Cl)sc5c4=O)c3c2)CN1 [Example 405] |  | 2930 nM | 12 nM |
| CS(=O)(=O)N1CC(Nc2ccc3cncc(-n4c(=O)[nH]c5cc(-c6ccccc6Cl)sc5c4=O)c3c2)C1 [Example 406] |  | 471 nM | 12.6 nM |
| COc1ccc(Cl)c(-c2ccc3c(=O)n(-c4cncc5ccc(N6CCC(F)(F)C6)cc45)c(=O)[nH]c3c2)c1 [Example 407] |  | 184 nM | 79.7 nM |
| COc1ccc(Cl)c(-c2ccc3c(=O)n(-c4cncc5ccc(N6CC(OC)C6)cc45)c(=O)[nH]c3c2)c1 [Example 408] |  | 108 nM | 42.7 nM |

Reference: patent publication US20240116946A1 (Gilead Sciences, Inc., priority 2022, published 2024)
